Test results: ChEMBL document CHEMBL4476866, “Pyrrol-1-yl benzoic acid derivatives useful as myc inhibitors” (2015)
Activity calls are given as the source filed them. No cut-off for these calls is given here.

Tests used:
[1] = test system: NCI-H2171; assay: Cytotoxic activity against human NCI-H2171 cells assessed as reduction in cell viability incubated for 3 days by ATPlite assay; type: functional, cell-based
[2] = test system: MM1.S; assay: Cytotoxic activity against human MM1S cells assessed as reduction in cell viability incubated for 3 days by ATPlite assay; type: functional, cell-based
[3] = target: T1, Myc proto-oncogene protein (Homo sapiens, UniProt P01106); assay: Inhibition of human c-Myc assessed as reduction in c-Myc/Max/Ebox DNA complex formation using pre-formed complex of c-Myc and biotinylated DNA containing single Ebox-sequence followed by compound addition and further addition of his6-tagged c-Max and incubated for 2 hrs by AlphaScreen assay
[4] = target: T1, Myc proto-oncogene protein; assay: Inhibition of c-Myc in human NCI-H2171 cells assessed as reduction in c-Myc occupancy at Rp123a binding site at 100 uM incubated for 4 hrs by chromatin immunoprecipitation assay; type: cell-based
[5] = target: T1, Myc proto-oncogene protein; assay: Inhibition of c-Myc in human NCI-H2171 cells assessed as reduction in c-Myc occupancy at Mat2a binding site at 100 uM incubated for 4 hrs by chromatin immunoprecipitation assay; type: cell-based
[6] = target: T1, Myc proto-oncogene protein; assay: Inhibition of c-Myc in human NCI-H2171 cells assessed as reduction in c-Myc occupancy at Npm1 binding site at 100 uM incubated for 4 hrs by chromatin immunoprecipitation assay; type: cell-based
[7] = target: T1, Myc proto-oncogene protein; assay: Inhibition of c-Myc in human NCI-H2171 cells assessed as reduction in c-Myc occupancy at Hnrnpa2b1 binding site at 100 uM incubated for 4 hrs by chromatin immunoprecipitation assay; type: cell-based
[8] = target: T1, Myc proto-oncogene protein; assay: Inhibition of human his6-tagged c-Myc assessed as reduction in c-Myc/Max/Ebox DNA complex formation by gel shift based orthogonal biochemical assay
[9] = test system: NCI-H2171; assay: Induction of cell differentiation in human NCI-H2171 cells assessed as effect on CD11c gene expression at 12.5 to 25 uM incubated for 4 days by qRT-PCR analysis; type: functional, cell-based
[10] = target: Protein max (Homo sapiens) (UniProt P61244); assay: Inhibition of Max in human NCI-H2171 cells assessed as reduction in Max occupancy at Npm1 binding site at 100 uM incubated for 4 hrs by chromatin immunoprecipitation assay; type: cell-based
[11] = test system: NCI-H2171; assay: Induction of cell differentiation in human NCI-H2171 cells assessed as effect on CD14 gene expression at 12.5 to 25 uM incubated for 4 days by qRT-PCR analysis; type: functional, cell-based
[12] = target: Protein max (Homo sapiens) (UniProt P61244); assay: Inhibition of Max in human NCI-H2171 cells assessed as reduction in Max occupancy at Hnrnpa2b1 binding site at 100 uM incubated for 4 hrs by chromatin immunoprecipitation assay; type: cell-based
[13] = target: Protein max (Homo sapiens) (UniProt P61244); assay: Inhibition of Max in human NCI-H2171 cells assessed as reduction in Max occupancy at Rp123a binding site at 100 uM incubated for 4 hrs by chromatin immunoprecipitation assay; type: cell-based
[14] = test system: NCI-H2171; assay: Effect on c-Myc protein levels in human NCI-H2171 cells at 100 uM incubated for 4 hrs by […]; type: functional, cell-based
[15] = target: Protein max (Homo sapiens) (UniProt P61244); assay: Inhibition of Max in human NCI-H2171 cells assessed as reduction in Max occupancy at Mat2a binding site at 100 uM incubated for 4 hrs by chromatin immunoprecipitation assay; type: cell-based
[16] = test system: NCI-H2171; assay: Induction of cell differentiation in human NCI-H2171 cells assessed as effect on CD11c expression at 12.5 to 25 uM incubated for 4 days by FACS analysis; type: functional, cell-based
[17] = test system: NCI-H2171; assay: Induction of cell differentiation in human NCI-H2171 cells assessed as effect on CCl4 gene expression at 12.5 to 25 uM incubated for 4 days by qRT-PCR analysis; type: functional, cell-based
[18] = Induction of Ebox DNA (unknown origin) intercalation assessed as reduction in c-Myc/Max/Ebox DNA complex formation at 1.7 to 15 uM by gel shift based orthogonal biochemical assay
[19] = Induction of Ebox DNA (unknown origin) intercalation assessed as reduction in Max/Max/Ebox DNA complex formation at 1.7 to 15 uM by gel shift based orthogonal biochemical assay
[20] = Induction of Ebox DNA (unknown origin) intercalation assessed as reduction in MITF/MITF/Ebox DNA complex formation at 1.7 to 15 uM by gel shift based orthogonal biochemical assay
[21] = Homo sapiens, NCI-H2171, 72 h, read-out: EC50
[22] = Homo sapiens, MM1.S, 72 h, read-out: EC50

Chain of Protein max (Homo sapiens) (P61244 whole entry): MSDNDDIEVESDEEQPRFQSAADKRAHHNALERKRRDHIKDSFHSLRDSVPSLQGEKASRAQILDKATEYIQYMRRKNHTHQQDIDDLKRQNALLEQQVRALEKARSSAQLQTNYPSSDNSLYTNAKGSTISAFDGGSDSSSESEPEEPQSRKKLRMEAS
T1 sequence (P01106 whole entry): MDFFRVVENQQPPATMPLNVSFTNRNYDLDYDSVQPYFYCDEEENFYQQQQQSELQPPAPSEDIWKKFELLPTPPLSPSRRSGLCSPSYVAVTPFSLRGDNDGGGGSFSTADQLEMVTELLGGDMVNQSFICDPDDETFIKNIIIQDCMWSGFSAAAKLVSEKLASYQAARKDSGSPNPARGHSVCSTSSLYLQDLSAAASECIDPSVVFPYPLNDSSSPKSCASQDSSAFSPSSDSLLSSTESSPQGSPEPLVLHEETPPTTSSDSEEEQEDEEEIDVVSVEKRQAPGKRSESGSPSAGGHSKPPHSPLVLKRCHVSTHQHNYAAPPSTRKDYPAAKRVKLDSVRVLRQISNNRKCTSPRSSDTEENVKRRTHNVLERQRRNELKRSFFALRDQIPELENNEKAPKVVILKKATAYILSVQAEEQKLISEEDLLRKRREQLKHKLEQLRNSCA

SMILES | EC50 ([1]; nci-h2171) | EC50 ([2]; mm1.s) | further results
Cc1ccc(C)n1-c1cc(C(=O)N/N=C\c2cc(F)c(C(=O)O)c(F)c2)ccc1C(=O)O | Not Active | Not Active | 
CC(=O)OCOC(=O)c1ccccc1N1CCN(C)CC1 |  |  | IC50 [3]: Not Active
Cc1ccc(C)n1-c1cc(C(=O)N/N=C\c2ccc(C(=O)O)s2)ccc1C(=O)O |  | Not Active | 
Cc1ncc(CO)c(/C=N/NC(=O)c2ccc(C(=O)O)c(-n3c(C)ccc3C)c2)c1O |  | Not Active | 
Cc1ccc(C)n1-c1cc(C(=O)O)ccc1C(=O)O | Not Active |  | IC50 ([3]; read-out: IC50): 0.788 µM
CC(=O)OCOC(=O)c1ccccc1-n1c(C)ccc1C |  |  | EC50 [1, 21]: 20.7 to 29.9 µM; EC50 [2, 22]: 52.3 to 71.4 µM
Cc1cc(C)c2c(=O)c(/C=N/NC(=O)c3ccc(C(=O)O)c(-n4c(C)ccc4C)c3)coc2c1 | Not Active |  | 
CC(=O)OCOC(=O)c1ccc(-n2c(C)ccc2C)cc1O |  |  | EC50 [1, 21]: 2.8 to 66.1 µM; EC50 [2, 22]: 11 to 446 µM
Cc1ccc(C)n1-c1c(C(=O)O)cccc1[N+](=O)[O-] |  |  | IC50 [3]: Not Active
CC(=O)Oc1cc(-n2c(C)ccc2C)ccc1C(=O)O |  |  | IC50 [3]: Not Active
Cc1ccc(C)n1-c1cc(C(=O)N/N=C/c2ccc(S(=O)(=O)O)o2)ccc1C(=O)O |  | Not Active | 
Cc1ccc(C)n1-c1cc(C(=O)N/N=C/c2cccc(C(=O)O)c2)ccc1C(=O)O | Not Active | Not Active | 
O=C(O)c1ccccc1-n1cccc1 |  |  | inhibition [4]: inactive; inhibition [5]: inactive; inhibition [6]: inactive; inhibition [7]: inactive
Cc1ccc(C)n1-c1cc(C(=O)N/N=C/c2ccccc2N2CCOCC2)ccc1C(=O)O | Not Active | Not Active | IC50 ([3]; read-out: IC50): 7.05 µM
CC(=O)OCOC(=O)c1ccc(C(=O)N/N=C/c2c[nH]cn2)cc1-n1c(C)ccc1C |  | Not Active | 
Cc1ccc(C)n1-c1ccc(Cl)cc1C(=O)O |  | Not Active | 
Cc1ccc(C)n1-c1cc(C(=O)N/N=C/c2ccc3nccnc3c2)ccc1C(=O)O | Not Active | Not Active | 
Cc1ccc(C)n1-c1cc(C(=O)N2CCOCC2)ccc1C(=O)O |  | Not Active | 
Cc1ccc(C)n1-c1ncccc1C(=O)O |  | Not Active | 
Cc1ccc(C)n1-c1cc(C(=O)N/N=C/c2ccc(C(=O)O)o2)ccc1C(=O)O | Not Active | Not Active | 
Cc1ccc(C)n1-c1ccc(C(=O)O)c(O)c1 |  |  | EC50 [1, 21]: 189 to 517 µM; EC50 [2, 22]: 517 to 1440 µM

SMILES | EC50 ([1]; nci-h2171) | EC50 ([2]; mm1.s) | further results
Cc1ccc(C)n1-c1cc(C(=O)N/N=C/c2ncc[nH]2)ccc1C(=O)O |  | Not Active | 
Cc1ccc(C)n1-c1cc(C(=O)N/N=C/c2cccc3ncccc23)ccc1C(=O)O |  | Not Active | 
CN(C)c1ccc(/N=N/c2ccccc2C(=O)O)cc1 |  | Not Active | 
Cc1ccc(C)n1-c1ccccc1C(N)=O |  |  | IC50 [3]: Not Active
Cc1ccc(C)n1-c1cc(C(=O)N/N=C/c2c[nH]cn2)ccc1C(=O)O | Not Active | Not Active | 
Cc1ccc(C)n1-c1cc(C(=O)N/N=C/c2cccnc2)ccc1C(=O)O | Not Active |  | 
Cc1ccc(C)n1-c1cc(C(=O)N/N=C/c2c[nH]c3ccc(F)cc23)ccc1C(=O)O | Not Active | Not Active | 
Cc1c2ccccc2c(C)n1-c1ccccc1C(=O)O | Not Active | Not Active | 
Cc1ccc(C)n1-c1cc(C(=O)NCCc2cccc(C(=O)O)c2)ccc1C(=O)O |  |  | IC50 ([3]; read-out: IC50): 7.27 µM
Cc1cc(C(=O)N/N=C/c2ccccc2)c(C)n1-c1ccccc1C(=O)O | Not Active | Not Active | 
Cc1ccc(C)n1-c1cc(C(=O)NNC(=O)c2cccc(C(=O)O)c2)ccc1C(=O)O | Not Active | Not Active | 
Cc1ccc(C)n1-c1ccccc1C(=O)O |  |  | inhibition [4]: Active; inhibition [8]: Dose-dependent effect; Activity [9]: Active; inhibition [10]: inactive; Activity [11]: Active; inhibition [5]: Active; inhibition [12]: inactive; inhibition [6]: Active; inhibition [7]: Active; inhibition [13]: inactive; inhibition [14]: inactive; inhibition [15]: inactive; Activity [16]: Active; Activity [17]: Active
Cc1ccc(C)n1-c1cc(C(=O)N/N=C\c2ccc(O)c(F)c2)ccc1C(=O)O | Not Active | Not Active | 
COC(=O)c1ccc(-n2cccc2)cc1O |  |  | IC50 [3]: Not Active
Cc1ccc(C)n1-c1cc(C(=O)N/N=C/c2ccc3ccccc3n2)ccc1C(=O)O | Not Active |  | 
CC(=O)OCOC(=O)c1ccccc1-n1ccnc1C |  |  | IC50 [3]: Not Active
Cc1ccc(C)n1-c1cc(C(=O)N/N=C/c2ccc(N(C)C)cc2)ccc1C(=O)O | Not Active |  | 
Cc1ccc(C)n1-c1cc(C(=O)N/N=C/c2c[nH]c3cc(F)ccc23)ccc1C(=O)O |  | Not Active | 
Cc1ccc(C)n1-c1cc(C(=O)N/N=C/c2cc(F)c(F)c(F)c2)ccc1C(=O)O |  | Not Active | 
Cc1ccc(C)n1-c1cc(C(=O)N/N=C\c2cccc(C(=O)O)c2)ccc1C(=O)O | Not Active | Not Active | 
Cc1ccc(C)n1-c1cc(C(=O)NN)ccc1C(=O)O |  |  | EC50 ([1]; nci-h2171, read-out: EC50): 0.00363 to 43.7 µM; EC50 [2, 22]: 625 to 1240 µM

SMILES | EC50 ([1]; nci-h2171) | EC50 ([2]; mm1.s) | further results
Cc1ccc(C)n1-c1cc(C(=O)N/N=C/c2cc(C(=O)O)ccc2F)ccc1C(=O)O | Not Active |  | 
Cc1ccc(C)n1-c1cc(C(=O)N/N=C/c2cccc(B(O)O)c2)ccc1C(=O)O | Not Active | Not Active | 
COc1ccc(/C=N/NC(=O)c2ccc(C(=O)O)c(-n3c(C)ccc3C)c2)c(OC)c1 |  | Not Active | 
Cc1ccc(C)n1-c1cc(C(=O)N/N=C/c2ccc(O)cc2)ccc1C(=O)O | Not Active | Not Active | 
COc1cccc2c1C(=O)c1c(O)c3c(c(O)c1C2=O)C[C@@](O)(C(=O)CO)C[C@@H]3O[C@H]1C[C@H](N)[C@H](O)[C@H](C)O1 |  |  | Activity [18]: Active; Activity [19]: Active; Activity [20]: Active
COC(=O)c1ccc(-n2c(C)ccc2C)cc1O | Not Active | Not Active | 
CC(=O)OCOC(=O)c1ccc(C(=O)N/N=C/c2ccc(O)c(O)c2O)cc1-n1c(C)ccc1C |  |  | EC50 [1, 21]: 2.23 µM; EC50 [2, 22]: 14.8 µM
CN1CCN(c2ccccc2C(=O)O)CC1 |  | Not Active | 
Cc1cc(C(=O)O)ccc1-n1c(C)ccc1C |  | Not Active | 
Cc1ccc(C)n1-c1cc(C(=O)N/N=C/c2c[nH]c3ccc(C#N)cc23)ccc1C(=O)O |  |  | EC50 [1, 21]: 3240 µM; EC50 [2, 22]: 5.75 µM
Cc1ccc(C)n1-c1cccc(C(=O)c2ccccc2)c1C(=O)O |  | Not Active | 
Cc1ccc(C)n1-c1ccc(C(=O)O)cc1O |  | Not Active | 
Cc1ccc(C)n1-c1cc(C(=O)N/N=C/c2ccc3cccnc3n2)ccc1C(=O)O | Not Active |  | 
Cc1ccc(C)n1-c1cc(C(=O)N/N=C\c2ccc(S(=O)(=O)O)cc2)ccc1C(=O)O |  | Not Active | 
COc1ncc(/C=N/NC(=O)c2ccc(C(=O)O)c(-n3c(C)ccc3C)c2)c(OC)n1 |  | Not Active | 
Cc1ccc(C)n1-c1ccc(C(=O)O)c([N+](=O)[O-])c1 | Not Active |  | 
Cc1ccc(C)n1-c1cnccc1C(=O)O | Not Active |  | 
O=C(O)c1ccccc1-n1c2ccccc2c2ccccc21 |  |  | IC50 [3]: Not Active
Cc1c(C)c(C)n(-c2ccccc2C(=O)O)c1C |  |  | IC50 ([3]; read-out: IC50): 83.4 µM
Cc1ccc(C)n1-c1cc(C(=O)N/N=C/c2ccc(-c3cncnc3)cc2)ccc1C(=O)O | Not Active | Not Active | 
